This data set can be described thus: method code SF-AS, from DOI: 10.1021/jm00305a054, PMID: 5812219.
`CCCC(=O)NC(=O)C1CCC1`: the logP (as a rule, a log measure of how a compound divides between an organic and an aqueous phase) was 0.41.
Consider `CC(C)CC(=O)NC(=O)C1CCC1`, for which the logP amounted to 0.48.
Next, `CC(C)(C)C(=O)NC(=O)C1CCC1`: 0.53.
`O=CNC(=O)C1CCC1`: the logP is -0.7.
Turning to `CCCCCCCCCCCC(=O)NC(=O)C1CCC1`, the logP was 1.28.
`CCCCCC(=O)NC(=O)C1CCC1` showed a logP of 0.89.
`CC(C)C(=O)NC(=O)C1CCC1` came in with a logP of 0.26.
Compound `CCCCCCCC(=O)NC(=O)C1CCC1` had a logP of 0.85.
For `CC(=O)NC(=O)C1CCC1`, the logP is -0.4.
The compound `CCCCC(=O)NC(=O)C1CCC1` displayed a logP of 0.75.

For the origin of these results see the SangsterLogP compilation.
